This experiment deals with 636577-100-R-J1-PDC complex spheroid viability. Nature of the experiment: Anticancer human tumor 636577-100-R-J1-PDC patient-derived endometrial adenocarcinoma cell line growth inhibition [GQUAD]. The settings on record: for viability, T/C: stronger effect = lower value; for IC50: curve of compound. The text has this: DNA G-quadruplex Stabilizer Agents in Combinations in Complex Spheroids
A high-throughput screen of multi-cell type tumor spheroids was designed to identify active combinations of DNA G-quadruplex stabilizer agents and targeted small molecules. Complex spheroids include a stromal component modeled by human endothelial cells (HUVEC) and fibroblasts modeled by human mesenchymal stem cells (MSCs). The concentration ranges selected for each drug and investigational agent were based upon clinically achievable concentrations if the clinical Cmax of the agent was known.
Compounds. The drugs and investigational agents: pidnarulex (CX-5461; NSC782164), APTO-253 (NSC789042), BRACO-19 (NSC847499), peposertib (NSC802822), ceralasertib (NSC780249), elimusertib (NSC800525), camonsertib (NSC841442), AZD-1390 (NSC803789), olaparib (NSC753686), talazoparib (NSC767125), ART-558 (NSC835418), sotorasib (NSC818433), MRTX-1133 (NSC836407), SN-38 (NSC673596), topotecan (NSC609699), etoposide (NSC141540), doxorubicin (NSC123127), gemcitabine (NSC613327), 5-fluorouracil (NSC19893), paclitaxel (NSC125973), vemurafenib (NSC761431), panobinostat (NSC761190), R-306465 (JNJ-16241199; NSC773264), adavosertib (NSC754352), TP-3654 (NSC805149), carboplatin (NSC241240), KSQ-4279 (NSC840948), and staurosporine (NSC755774) were obtained from the National Cancer Institute (NCI) Developmental Therapeutics Program Chemical Repository (34). The FDA-approved anticancer drug set is available from the NCI Developmental Therapeutics Program. […] The stock solutions were prepared in dimethyl sulfoxide (DMSO, Sigma-Aldrich, St. Louis, MO, cat. D2650) at 800-fold the tested concentration and stored at -70 degrees C prior to their use. All drugs and investigational agents were tested over a range starting from a high concentration at or near the clinical Cmax and decreasing in half-log increments. If the clinical Cmax for an agent had not been determined, the highest concentration tested was 10 microM.
2.3 Cell Culture. All cells were maintained in an incubator at 37 degrees C and 5% CO2 with 95% humidity. The PDC lines were cultured according to standard operating procedures established by the NCI PDMR. All PDCs were thawed and cultured in Matrigel-coated flasks prepared with a working solution of 1X Ham's F-12 nutrient mix, without supplementation (Invitrogen, cat. 11765054), 100 U/mL penicillin-streptomycin (Invitrogen, cat. 15140122), and 2.5% Matrigel (Corning Inc., cat. 354248) for the first three passages. The 857933-349-R-J2-PDC line was cultured in 6C/Colon 1B media, which includes advanced DMEM/F-12 (Thermo Fisher Scientific, cat. 12634028), 10 mM HEPES (Thermo Fisher Scientific, cat. 15630080), 1X GlutaMAX supplement (Thermo Fisher Scientific, cat. 35050061), 0.1 mg/mL primocin (InvivoGen, cat. ant-pm-2), 10% defined fetal bovine serum, heat inactivated (HyClone Laboratories Inc., cat. SH30070.03HI), 50% L-WRN conditioned media (ATCC, cat. CRL-3276), 1.25 mM N-Acetyl-L-cysteine (Sigma-Aldrich, cat. A9165), 10 mM nicotinamide (Sigma-Aldrich, cat. N0636), 1X B-27 supplement (Thermo Fisher Scientific, cat. 17504044), 1X N-2 supplement (Thermo Fisher Scientific, cat. 17502048), 10 microM Y-27632 dihydrochloride (Tocris Bioscience, cat. 1254), and 50 ng/mL human EGF recombinant protein (Thermo Fisher Scientific, cat. PHG0311). The 485176-168-R4-J1-PDC line was cultured in Panc media, which includes all 6C/Colon 1B media components plus 100 ng/mL human FGF-10 (Thermo Fisher Scientific, cat. 100-26), 500 nM SB-431542 (Selleckchem, cat. S1067), and gastrin (Tocris, cat. 3006).
[…]

Structures are written as SMILES. “And” between values parts separate entries of the source, which are not always exact repeats. Identical values can stand only once.
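Further: viability read after seven days of drug exposure.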
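Wherever viability, T/C is given: luminescence signal used as a proxy for viable cells; 100% = DMSO vehicle control wells.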

Regarding `C#Cc1c(F)ccc2cc(O)cc(-c3ncc4c(N5CC6CCC(C5)N6)nc(OCC56CCCN5CC(F)C6)nc4c3F)c12` (stereo not given), the half-maximal inhibitory concentration (IC50) was > 10000 nM and 4970 nM and 5760 nM. Besides, the viability, T/C (compound 0.0316 µM) was 99.5% and 96.3% and 104%. The viability, T/C (compound 0.1 µM) was 88.7% and 68.7% and 103%. The viability, T/C (compound 0.316 µM) is 77.1% and 102% and 113%. Besides, for the setting “compound 1 µM”, the viability, T/C is 83% and 87.9% and 71.9%. For the same compound, the viability, T/C (compound 3.16 µM) was 66.9% and 56.5% and 70.4%. For the same compound, the viability, T/C (compound 10 µM) was 49.2% and 39.9% and 35.7%.
For `C=CC(=O)N1CCN(c2nc(=O)n(-c3c(C)ccnc3C(C)C)c3nc(-c4c(O)cccc4F)c(F)cc23)C(C)C1` (stereo not given), the IC50 was above 10000 nM. The viability, T/C (compound 0.0316 µM) is 103% and 110%. Further, under “compound 0.1 µM”, the viability, T/C is 55.1% and 117%. Further, the viability, T/C (compound 0.316 µM) was 105%. Further, where the note is “compound 1 µM”, the viability, T/C is 107% and 90.3%. In addition, for the setting “compound 3.16 µM”, the viability, T/C was 72.6% and 85.3%. In addition, the viability, T/C (compound 10 µM) was 70.6% and 66.2%.
Turning to `CC(=O)O[C@H]1C(=O)[C@@]2(C)[C@H]([C@H](OC(=O)c3ccccc3)[C@]3(O)C[C@H](OC(=O)[C@H](O)[C@@H](NC(=O)c4ccccc4)c4ccccc4)C(C)=C1C3(C)C)[C@]1(OC(C)=O)CO[C@@H]1C[C@@H]2O`, the 50% inhibitory concentration (IC50) was below 31.6 nM. The viability, T/C (compound 0.0316 µM) was 17.6% and 17.3% and 20.3%. Moreover, the viability, T/C (compound 0.1 µM) was 14% and 14.4% and 13.2%. Where the note is “compound 0.316 µM”, the viability, T/C was 12.3% and 12.7% and 10.3%. Also, where the note is “compound 1 µM”, the viability, T/C was 12.2% and 12% and 10%. The viability, T/C (compound 3.16 µM) is 9.72% and 10.1% and 7.81%. Where the note is “compound 10 µM”, the viability, T/C was 9.54% and 9.71% and 8.27%.
`CC(C)n1c(=O)n(C)c2cnc3cc(F)c(-c4ccc(OCCCN5CCCCC5)nc4)cc3c21`: the concentration for half-maximal inhibition (IC50) is > 10000 nM and 9660 nM. Besides, the viability, T/C (compound 0.0316 µM) was 72.8% and 108%. Moreover, the viability, T/C (compound 0.1 µM) was 97.3% and 87.1%. Moreover, the viability, T/C (compound 0.316 µM) was 90.1% and 107%. Moreover, the viability, T/C (compound 1 µM) was 56.6% and 102%. Also, the viability, T/C (compound 3.16 µM) was 57.8% and 80.4%. Besides, the viability, T/C (compound 10 µM) was 53.7% and 49%.
Take `CC1COCCN1c1cc(-c2ccnn2C)c2ccnc(-c3ccn[nH]3)c2n1` (stereo not given): the IC50 was 113 nM and 71 nM and 109 nM. Besides, for the setting “compound 0.0316 µM”, the viability, T/C was 85.1% and 78.3% and 94.5%. Moreover, under “compound 0.1 µM”, the viability, T/C was 52.2% and 35.1% and 51.9%. In addition, the viability, T/C (compound 0.316 µM) was 29.6% and 23.1% and 25.6%. Moreover, for the setting “compound 1 µM”, the viability, T/C is 15.7% and 12.7% and 13%. Moreover, the viability, T/C (compound 3.16 µM) was 5.78% and 5.92% and 5.17%. For the same compound, the viability, T/C (compound 10 µM) was 3.61% and 3.66% and 3.51%.
For `CC1COCCN1c1cc(C2(O)CC3CCC(C2)O3)c2cnn(-c3ccn[nH]3)c2n1` (stereo not given), the IC50 is < 31.6 nM and 54.1 nM and 36.7 nM. The viability, T/C (compound 0.0316 µM) was 45.5% and 69.8% and 52.9%. For the same compound, the viability, T/C (compound 0.1 µM) is 36.3% and 25.4% and 31.3%. The viability, T/C (compound 0.316 µM) is 18.9% and 15.5% and 18%. For the same compound, the viability, T/C (compound 1 µM) was 8.03% and 6.74% and 6.72%. Moreover, for the setting “compound 3.16 µM”, the viability, T/C is 3.6% and 2.83% and 2.96%. Also, the viability, T/C (compound 10 µM) is 1.1% and 0.71% and 1.08%.
With `CC1COCCN1c1cc(C2(S(C)(=N)=O)CC2)nc(-c2ccnc3[nH]ccc23)n1` (stereo not given), the IC50 was 1040 nM and 2200 nM. The viability, T/C (compound 0.0316 µM) was 90.3% and 97.2% and 58.2%. Further, under “compound 0.1 µM”, the viability, T/C is 91.5% and 90.5% and 90.6%. Where the note is “compound 0.316 µM”, the viability, T/C is 93% and 90.3% and 73.6%. Moreover, the viability, T/C (compound 1 µM) was 50.8% and 49.6% and 41.9%. For the same compound, for the setting “compound 3.16 µM”, the viability, T/C is 22.6% and 22.4% and 54.3%. Also, for the setting “compound 10 µM”, the viability, T/C is 14.2% and 12.7% and 14.7%.
In the case of `CCCS(=O)(=O)Nc1ccc(F)c(C(=O)c2c[nH]c3ncc(-c4ccc(Cl)cc4)cc23)c1F`, the IC50 is 8650 nM and 6140 nM and 1700 nM. The viability, T/C (compound 0.0316 µM) was 98.3% and 98.1% and 104%. Under “compound 0.1 µM”, the viability, T/C is 89.9% and 103% and 86.1%. Under “compound 0.316 µM”, the viability, T/C is 109% and 84.8% and 76.3%. Moreover, the viability, T/C (compound 1 µM) is 75% and 74.6% and 46.8%. In addition, the viability, T/C (compound 3.16 µM) is 71.8% and 76.7% and 53.5%. Further, for the setting “compound 10 µM”, the viability, T/C was 46.6% and 34.8% and 20.9%.
As to `CC[C@@]1(O)C(=O)OCc2c1cc1n(c2=O)Cc2cc3c(CN(C)C)c(O)ccc3nc2-1`, the concentration for half-maximal inhibition (IC50) worked out at 24.3 nM. Moreover, the viability, T/C (compound 0.000999 µM) is 85.3%. Further, the viability, T/C (compound 0.00316 µM) is 80.8%. Also, the viability, T/C (compound 0.00999 µM) is 82.9%. Further, under “compound 0.0316 µM”, the viability, T/C was 40.3%. Moreover, the viability, T/C (compound 0.0999 µM) was 19.1%. The viability, T/C (compound 0.316 µM) is 22%.
Take `CCc1c2c(nc3ccc(O)cc13)-c1cc3c(c(=O)n1C2)COC(=O)[C@]3(O)CC`: the IC50 is below 0.999 nM. Under “compound 0.000999 µM”, the viability, T/C was 46.6%. The viability, T/C (compound 0.00316 µM) was 22.1%. Also, the viability, T/C (compound 0.00999 µM) is 23.3%. Besides, the viability, T/C (compound 0.0316 µM) was 22.9%. The viability, T/C (compound 0.0999 µM) was 19.6%. The viability, T/C (compound 0.316 µM) was 10.7%.

The term viability, T/C denotes the result in the treated group divided by that in the control group, in per cent. A word on the IC50: it is the point on the concentration scale where inhibition reaches its midpoint.
